Values quoted from earlier work, collected in publication PMC12169662, “De Novo-Designed APC/C Inhibitors Provide a Rationale for Targeting RING-Type E3 Ubiquitin Ligases” (Journal of Medicinal Chemistry, 2025).

Target: APC/C
Conditions: determined by the same methodology; ref not given; read-out: K i of apcin; cited from earlier work
Protocol: To quantify the inhibitory effectiveness of H6, its IC50 was determined. To this end, we performed in vitro APC/C ubiquitination assays in the presence of H6 titrated from 0.01 to 100 μM (Figure S17B). […] To distinguish between competitive and noncompetitive inhibition, we determin ...

In the case of `Cc1ncc([N+](=O)[O-])n1CCOC(=O)NC(Nc1ncccn1)C(Cl)(Cl)Cl` (stereo not shown) [apcin], the Ki is given as 23 µM.
